Experimental data published in patent US20240082282A1 (priority 2020, published 2024).
In brackets after ≈: the same amount, converted by molar mass. Read-outs that look alike come from different tables or passages of the source.

Key:
HEK293 = details: HEK293, alamar blue, 72 hours
HepG2 = details: HepG2, alamar blue, 72 hours
[1] = tested on: Parabacteroides merdae KLE 2238; type: cell-based; details: Parabacteroides merdae KLE 2238, anaerobic, stool isolate; for MIC: KLE2238, read-out: Minimum inhibitory concentration (MIC)
[2] = tested on: Bacteroides ovatus KLE 2306; type: cell-based; details: Bacteroides ovatus KLE 2306, anaerobic, stool isolate; for MIC: KLE2306, read-out: Minimum inhibitory concentration (MIC)
Treponema pallidum = assay: MIC, T. pallidum in co-culture with rabbit Sf1Ep cells
[3] = tested on: Staphylococcus aureus HG003; type: cell-based
[4] = tested on: Brachyspira (formerly Treponema) hyodysenteriae; details: report of a group from Japan; cited from earlier work
B. burgdorferi N40 = assay: Bait experiment in infected mice; type: in vivo, C3H mice; details: for B. burgdorferi culture (% positive) / Mean # of B. burgdorferi/10 mg of skin tissue (qPCR): bait once a day for 5 days; for Culture positive (%): C3H, bait, 5 days, whole ear culture
Method: Mice were infected with B. burgdorferi.
To prepare the mouse bait, 2 g of Bait formulation 3 (Food source), 0.5 g freshly ground peanut butter (Whole foods), 35 μl of green food coloring mix (Whole foods) were added into a 60 mm Petri dish. Boiling water (4 mL) was added and mixed with a spatula. The mixture was then dispensed into wells of a 96 well plate with a spatula such that about ⅔rd of the well was full. Antibiotics or vehicle were added at appropriate volume and mixed with a pipette tip. Added volume was kept below 60 μL per well. The bait was allowed to air dry/solidify for a few hours and the prepared baits were stored at 4° C. until use.
To ensure that the bait would be consumed, mice were housed individually with their mouse chow withheld during treatment. The doses used in mice were matched to the pharmacokinetic profile of humans given ceftriaxone 1 g every 12 hours (Sai Life Sciences Ltd, India) and doxycycline 100 mg every 12 hours.
Skin was used for liquid culture, and RNA extraction. All other tissues were used for RNA extraction. The growth of B. burgdorferi in 10 day liquid cultures was detected by dark field microscopy with a 100× objective.

[5] = tested on: Borrelia burgdorferi BbP1286
[6] = tested on: B. burgdorferi hygromycin A resistant mutant KLEx2; assay: RNAseq of hygromycin A treated vs untreated cells; type: cell-based; details: for log2 Fold Change: 4 ug/ml hygromycin A vs untreated
murine gut microbiome = assay: Impact on the murine fecal microbiome (16S rRNA sequencing)
Method: Stool samples were collected and V4 region of the 16s rRNA gene was amplified using primers and sequenced (IonTorrent).
Fecal pellets were collected 3 days before and 3 days after antibiotic treatment and were stored at −80° C. in PBS. Sequencing of a stool pellet from each mouse from before and after treatment was performed by MR DNA (www.mrdnalab.com, Shallowater, TX, USA) on an Ion Torrent PGM. Using PCR primers, the V4 variable region of the 16SrRNA gene was amplified in a single-step 30 cycle PCR with the HotStarTaq Plus Master Mix Kit (Qiagen, USA). The following conditions were used: 94° C. for 3 minutes and 30 cycles of 94° C. for 30 seconds, 53° C. for 40 seconds and 72° C. for 1 minute, then a final elongation step for 5 minutes at 72° C. […] Barcodes and primers and then sequences<150 bp were removed. Further, sequences with homopolymer runs exceeding 6 bp and sequences with ambiguous calls were removed. The sequences were then denoised, OTUs were generated, and chimeras were removed; OTUs were clustered at 3% divergence. Taxonomic classification was performed using BLASTn against a database derived from RDPII available at www.rdp.cme.msu.edu) and NCBI (www.ncbi.nlm.nih.gov). The change in relative abundance of the most abundant genera from before to after treatment of each individual mouse was reported. Further, raw sequences were processed in Qiita (Gonzalez, A., et al. (2018). Nat Methods 15, 796-798; the contents of which are herein incorporated by reference in its entirety) and were demultiplexed, trimmed to 100 bp, and closed reference OTU picking was performed against the Greengenes database at 97% similarity (McDonald, D. et al. (2012). ISME J 6, 610-618; the contents of which are herein incorporated by reference in its entirety). The alpha diversity based on the Simpson index was calculated in Qiita. The change in the Simpson index was calculated for the fecal microbiome of each mouse from before to after treatment. Statistical significance was calculated using a one-way ANOVA with Tukey's multiple comparisons test (p<0.05).

[7] = tested on: B. burgdorferi overexpressing bmpD (Bb1286+pJSB275m_bmpD); assay: MIC of B. burgdorferi overexpressing bmpD; type: cell-based; details: for Change of MIC on overexpression of bmpD in B. burgdorferi: normalized to wild-type B. burgdorferi, IPTG-independent
[8] = Staphylococcus aureus HG003, read-out: Minimum inhibitory concentration (MIC)

With Hygromycin A the IC50 (HEK293) was greater than 512 µg/mL, the IC50 (HepG2) was greater than 512 µg/mL and the “Minimum inhibitory concentration (MIC)” value [1] was 16 µg/mL. The “Minimum inhibitory concentration (MIC)” value [2] was 64 µg/mL, the MIC (Treponema pallidum) was 0.03 µg and the “Minimum inhibitory concentration (MIC)” value (Treponema pallidum) was 0.03 µg/mL. The MIC (Treponema pallidum; monitoring spirochetes in co-culture with rabbit cells) was 0.03 µg/mL, the “Activity against S. aureus, times lower compared to B. burgdorferi” value ([3]; S. aureus used in the counter-screen vs B. burgdorferi) was 64 times and the MIC ([3]; Staphylococcus aureus) was 8 µg. The “Minimum inhibitory concentration (MIC)” value ([3]; Staphylococcus aureus HG003) was 8 µg/mL, the “Maximal non-toxic dose tested relative to minimal efficacious dose” value (500 mg/kg vs minimal efficacious dose) was 10 fold and the “Toxicity at maximal dose tested” value (C3H mice, 500 mg/kg, preliminary data) was “absence of toxicity”. For the same molecule, the Signs of toxicity (any of the doses used in the efficacy experiments (IP, gavage, bait)) was “no signs of toxicity”, the Indications of toxicity (even at very high doses) was “no indications of toxicity” and the Biosafety window (preliminary testing) was greater than 500 mg/kg. The “Activity against Brachyspira hyodysenteriae” value [4] was “good activity”, the “B. burgdorferi culture (% positive)” value (B. burgdorferi N40; 200 mg/kg) was 0% and the “Mean # of B. burgdorferi/10 mg of skin tissue (qPCR)” value (B. burgdorferi N40; 200 mg/kg) was <1 B. burgdorferi/10 mg of skin t. The “Culture positive (%)” value (B. burgdorferi N40; daily dose 100 mg/kg/day) was 0%, the “Clearance of B. burgdorferi infection by consuming baits” value (B. burgdorferi N40; baits, FIG. 10) was “efficiently cleared” and the MIC ([5]; Borrelia burgdorferi BbP1286) was 0.12 µg. The “Minimum inhibitory concentration (MIC)” value ([5]; Borreliella burgdorferi P1286, microaerophilic) was 0.12 µg/mL, the “log2 Fold Change” value ([6]; gene 16S) was −1.80 and the “log2 Fold Change” value ([6]; gene BBC10) was −8.07. For the same molecule, the “log2 Fold Change” value ([6]; gene BBC11) was −7.92, the “log2 Fold Change” value ([6]; gene BB_0183) was −1.46 and the “log2 Fold Change” value ([6]; gene BB_0206) was 1.07. For the same molecule, the “log2 Fold Change” value ([6]; gene BB_0212) was −1.15, the “log2 Fold Change” value ([6]; gene BB_0731) was −1.01 and the “log2 Fold Change” value ([6]; gene BB_0758) was 1.32. For the same molecule, the “log2 Fold Change” value ([6]; gene BB_0839) was −1.15, the “log2 Fold Change” value ([6]; gene BB_0844) was −1.41 and the “log2 Fold Change” value ([6]; gene BB_A07) was −1.23. The “log2 Fold Change” value ([6]; gene BB_A34) was 1.06, the “log2 Fold Change” value ([6]; gene BB_B13) was 1.12 and the “log2 Fold Change” value ([6]; gene BB_H41) was −2.37. The “log2 Fold Change” value ([6]; gene BB_I18) was 1.16, the “log2 Fold Change” value ([6]; gene BB_J11) was 1.02 and the “log2 Fold Change” value ([6]; gene BB_J17) was 1.43. The “log2 Fold Change” value ([6]; gene BB_J27) was 1.18, the “log2 Fold Change” value ([6]; gene BB_J31) was 1.22 and the “log2 Fold Change” value ([6]; gene BB_J45) was 1.22. The “log2 Fold Change” value ([6]; gene BB_K42) was −1.05, the “log2 Fold Change” value ([6]; gene BB_L03) was 1.06 and the “log2 Fold Change” value ([6]; gene BB_N03) was 1.15. The “log2 Fold Change” value ([6]; gene BB_N04) was 1.06, the “log2 Fold Change” value ([6]; gene BB_O18) was −1.04 and the “log2 Fold Change” value ([6]; gene BB_P03) was 1.06. For the same molecule, the “log2 Fold Change” value ([6]; gene BB_U05) was −1.14, the “log2 Fold Change” value ([6]; gene bmpD) was −1.67 and the “log2 Fold Change” value ([6]; gene glpK) was −1.62. For the same molecule, the “log2 Fold Change” value ([6]; gene tRNA-Cys-1) was −1.17, the “Decrease in the expression of bmpD” value ([6]; transcriptome of hygromycin A treated KLEX2 cells vs untreated) was 2.78 fold and the “Increases in Enterococcaceae or Enterobacteriaceae” value (murine gut microbiome; HygA 50 mg/kg oral, 5 days) was “did not lead to increases”. The “Mice that maintained Bacteroidaceae levels” value (murine gut microbiome; HygA 50 mg/kg oral, 5 days) was 1/5, the “Mice with decreased Bacteroidaceae” value (murine gut microbiome; HygA 50 mg/kg oral, 5 days) was 3/5 and the “Mice with increased Bacteroidaceae” value (murine gut microbiome; HygA 50 mg/kg oral, 5 days) was 1/5. The “Overall fluctuation of Bacteroidaceae” value (murine gut microbiome; HygA 50 mg/kg oral, 5 days, not significantly different from untreated) was −8.5 % relative abundance, the “Change in symbiotic Lactobacillus and Lactococcus” value (murine gut microbiome; after treatment) was “prominent increase” and the “Changes in the composition of the microbiota” value (murine gut microbiome; clinically relevant doses, 16S rDNA sequencing, FIG. 8, 9A, 9B) was “milder”. For the same molecule, the MIC ([7]; BmpD overexpressing B. burgdorferi (FIG. 7B)) was 0.0625 µg/mL and the “Change of MIC on overexpression of bmpD in B. burgdorferi” value (“Change of MIC on overexpression of bmpD” for short) [7] was “four-fold reduction”.

In the case of `CC1(C)S[C@@H]2[C@H](NC(=O)[C@H](N)c3ccc(O)cc3)C(=O)N2[C@H]1C(=O)O` [Amoxicillin], the MIC [1] is reported as 1 µg/mL (≈ 2.74 µM), the MIC [2] is reported as 0.5 µg/mL (≈ 1.37 µM) and the MIC [3, 8] is reported as 1 µg/mL (≈ 2.74 µM). For the same molecule, the “Bloom of Bacteroides” value (murine gut microbiome; mouse, in vivo) was “produced a bloom of Bacteroides”, the “Changes in the composition of the microbiota” value (murine gut microbiome; mouse, in vivo) was “significant changes” and the “Mice with Enterococcaceae blooms” value (murine gut microbiome; mouse, in vivo) was 4/5.

With `C[C@H]1c2cccc(O)c2C(=O)C2=C(O)[C@]3(O)C(=O)C(C(N)=O)=C(O)[C@@H](N(C)C)[C@@H]3[C@@H](O)[C@@H]21` [Doxycycline] the MIC [1] was 0.06 µg/mL (≈ 0.135 µM), the MIC [2] was 0.01 µg/mL (≈ 0.0225 µM) and the MIC [3, 8] was 0.12 µg/mL (≈ 0.27 µM). For the same molecule, the “B. burgdorferi culture (% positive)” value (B. burgdorferi N40; 100 mg/kg) was 0%, the “Mean # of B. burgdorferi/10 mg of skin tissue (qPCR)” value (B. burgdorferi N40; 100 mg/kg) was <1 B. burgdorferi/10 mg of skin t and the “Culture positive (%)” value (B. burgdorferi N40; daily dose 200 mg/kg/day) was 0%.

`CO/N=C(\C(=O)N[C@@H]1C(=O)N2C(C(=O)O)=C(CSc3nc(=O)c(=O)[nH]n3C)CS[C@H]12)c1csc(N)n1` [Ceftriaxone] gave an MIC [1] of 0.25 µg/mL (≈ 0.451 µM), an MIC [2] of 0.02 µg/mL (≈ 0.0361 µM) and an MIC [3, 8] of 8 µg/mL (≈ 14.4 µM). For the same molecule, the “Mice with Enterococcaceae blooms” value (murine gut microbiome; mouse, in vivo) was 5/5, the “Change of MIC on overexpression of bmpD” value [7] was “no effect” and the “Change of MIC on overexpression of bmpD” value ([7]; listed as ceftriaxone) was “remained unchanged”.
